Results from ChEMBL document CHEMBL3994629, “Synthesis and biological evaluation of a water-soluble phosphate prodrug salt and structural analogues of KGP94, a lead inhibitor of cathepsin L” (Bioorg Med Chem Lett, 2017).
Activity calls are given as the source filed them. No cut-off for these calls is given here.

Tests used:
Procathepsin L [1] = biological target: T1, Procathepsin L (Homo sapiens, UniProt P07711); assay: Inhibition of human liver cathepsin-L at 10 uM using Z-FR-AMC as substrate preincubated for 5 mins followed by substrate addition measured at 15 sec interval for 5 mins in presence of 0.01% Brij35 by fluorometric method relative to control
Target sequence in this assay (P07711 114-333 limits assumed): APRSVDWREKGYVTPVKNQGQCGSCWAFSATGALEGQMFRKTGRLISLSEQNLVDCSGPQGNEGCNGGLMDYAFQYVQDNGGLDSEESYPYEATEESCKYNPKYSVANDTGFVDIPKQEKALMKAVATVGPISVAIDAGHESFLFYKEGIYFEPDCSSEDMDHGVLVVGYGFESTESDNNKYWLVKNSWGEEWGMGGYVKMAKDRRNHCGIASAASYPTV

Procathepsin L [2] = biological target: T1, Procathepsin L; assay: Inhibition of human liver cathepsin-L at 10 uM using Z-FR-AMC as substrate preincubated for 5 mins followed by substrate addition measured at 15 sec interval for 5 mins in presence of 0.1% Tween or 0.1% CHAPS by fluorometric method relative to control
Target sequence in this assay (P07711 114-333 limits assumed): as above

Procathepsin L [3] = biological target: T1, Procathepsin L; assay: Inhibition of human liver cathepsin-L using Z-FR-AMC as substrate preincubated for 5 mins followed by substrate addition measured at 15 sec interval for 5 mins by fluorometric method
Target sequence in this assay (P07711 whole entry): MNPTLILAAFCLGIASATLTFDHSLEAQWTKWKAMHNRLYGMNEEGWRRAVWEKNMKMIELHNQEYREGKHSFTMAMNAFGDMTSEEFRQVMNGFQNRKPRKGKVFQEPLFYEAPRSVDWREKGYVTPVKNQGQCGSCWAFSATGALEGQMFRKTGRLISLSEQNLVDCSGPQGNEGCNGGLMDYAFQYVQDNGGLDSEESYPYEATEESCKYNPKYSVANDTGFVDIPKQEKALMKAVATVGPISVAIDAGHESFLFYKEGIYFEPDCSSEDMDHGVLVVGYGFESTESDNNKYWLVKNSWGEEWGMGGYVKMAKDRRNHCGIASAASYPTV

Procathepsin L [4] = biological target: T1, Procathepsin L; assay: Covalent/reversible inhibition of human liver cathepsin-L using Z-FR-AMC as substrate preincubated for 5 mins followed by substrate addition measured at 15 sec interval for 5 mins by Morrison's equation analysis; conditions: read-out: Ki(app)
Target sequence in this assay (P07711 whole entry): as above

Procathepsin L [5] = biological target: T1, Procathepsin L; assay: Time-dependent inhibition of human liver cathepsin-L up to 20 uM using Z-FR-AMC as substrate preincubated with enzyme followed by substrate addition by fluorometric method
Target sequence in this assay (P07711 114-333 limits assumed): as the sequence (P07711 114-333 limits assumed) above

Cathepsin B [6] = biological target: T2, Cathepsin B (Homo sapiens, UniProt P07858); assay: Inhibition of human liver cathepsin-B at 10 uM using Z-RR-AMC as substrate preincubated for 5 mins followed by substrate addition measured for 5 mins by fluorometric method relative to control
Cathepsin B [7] = biological target: T2, Cathepsin B; assay: Inhibition of human liver cathepsin-B using Z-RR-AMC as substrate preincubated for 5 mins followed by substrate addition measured for 5 mins by fluorometric method
MDA-MB-231 = assay: Anti-migratory activity against human MDA-MB-231 cells assessed as delay in wound closure at 15 uM after 42 hrs by scratch assay; assay type: functional, cell-based
Procathepsin L [8] = biological target: T1, Procathepsin L; assay: Time-dependent inhibition of human liver cathepsin-L assessed as association constant up to 20 uM using 10 uM Z-FR-AMC as substrate preincubated with enzyme followed by substrate addition by fluorometric method
Target sequence in this assay (P07711 114-333 limits assumed): as above

Procathepsin L [9] = biological target: T1, Procathepsin L; assay: Time-dependent inhibition of human liver cathepsin-L assessed as dissociation constant up to 20 uM using 10 uM Z-FR-AMC as substrate preincubated with enzyme followed by substrate addition by fluorometric method
Target sequence in this assay (P07711 114-333 limits assumed): as above

Procathepsin L [10] = biological target: T1, Procathepsin L; assay: Time-dependent inhibition of human liver cathepsin-L assessed as association constant up to 20 uM using 5 uM Z-FR-AMC as substrate preincubated with enzyme followed by substrate addition by fluorometric method
Target sequence in this assay (P07711 114-333 limits assumed): as above

[11] = Solubility in water; assay type: physicochemical; conditions: buffer
[12] = Aqueous solubility of the compound in water at 4 g by reversed phase column chromatography; assay type: physicochemical
[13] = Stability in pH 8.6 glycine buffer assessed as compound hydrolysis after 48 hrs at 37 degC in absence of alkaline phosphatase by HPLC method
[14] = Stability in water assessed as compound hydrolysis at 20 uM after 1 week at 4 degC by HPLC method; assay type: physicochemical; conditions: buffer, 168 h
[15] = Retention time in pH 8.6 glycine buffer after 48 hrs at 37 degC by HPLC method
[16] = Cytotoxicity against HUVEC assessed as growth inhibition after 48 hrs by SRB assay; assay type: cell-based; conditions: human, HUVEC cells
[17] = Prodrug activation in pH 8.6 glycine buffer assessed as KGP94 formation after 48 hrs at 37 degC in absence of alkaline phosphatase by HPLC method
[18] = Prodrug activation in water assessed as assessed as KGP94 formation at 20 uM after 1 week at 4 degC by HPLC method
Caspase-3 (Homo sapiens) = biological target: T3, Caspase-3 (Homo sapiens) (UniProt P42574); assay: Inhibition of recombinant human caspase-3 at 1 uM using Ac-DMQD-AMC as substrate measured at 15 sec interval over 30 mins by fluorogenic assay relative to control
T3 sequence (whole entry): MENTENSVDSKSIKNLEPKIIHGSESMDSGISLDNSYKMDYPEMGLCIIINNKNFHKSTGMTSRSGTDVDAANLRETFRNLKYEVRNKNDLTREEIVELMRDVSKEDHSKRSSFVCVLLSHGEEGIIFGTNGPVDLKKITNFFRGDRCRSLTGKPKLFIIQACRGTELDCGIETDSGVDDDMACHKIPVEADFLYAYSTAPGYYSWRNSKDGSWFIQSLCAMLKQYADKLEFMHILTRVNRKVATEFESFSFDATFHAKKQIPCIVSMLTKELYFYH

[19] = biological target: Matrix metalloproteinase-9 (Homo sapiens) (UniProt P14780); assay: Inhibition of recombinant human MMP9 at 1 uM using NFF2 as substrate by fluorometric method relative to control
[20] = biological target: Matrix metalloproteinase-9 (Homo sapiens) (UniProt P14780); assay: Inhibition of recombinant human MMP9 at 10 uM using NFF2 as substrate by fluorometric method relative to control
[21] = Aqueous solubility of the compound in water at 2.02 mg by reversed phase column chromatography; assay type: physicochemical

Sequence of Matrix metalloproteinase-9 (Homo sapiens) (P14780 whole entry): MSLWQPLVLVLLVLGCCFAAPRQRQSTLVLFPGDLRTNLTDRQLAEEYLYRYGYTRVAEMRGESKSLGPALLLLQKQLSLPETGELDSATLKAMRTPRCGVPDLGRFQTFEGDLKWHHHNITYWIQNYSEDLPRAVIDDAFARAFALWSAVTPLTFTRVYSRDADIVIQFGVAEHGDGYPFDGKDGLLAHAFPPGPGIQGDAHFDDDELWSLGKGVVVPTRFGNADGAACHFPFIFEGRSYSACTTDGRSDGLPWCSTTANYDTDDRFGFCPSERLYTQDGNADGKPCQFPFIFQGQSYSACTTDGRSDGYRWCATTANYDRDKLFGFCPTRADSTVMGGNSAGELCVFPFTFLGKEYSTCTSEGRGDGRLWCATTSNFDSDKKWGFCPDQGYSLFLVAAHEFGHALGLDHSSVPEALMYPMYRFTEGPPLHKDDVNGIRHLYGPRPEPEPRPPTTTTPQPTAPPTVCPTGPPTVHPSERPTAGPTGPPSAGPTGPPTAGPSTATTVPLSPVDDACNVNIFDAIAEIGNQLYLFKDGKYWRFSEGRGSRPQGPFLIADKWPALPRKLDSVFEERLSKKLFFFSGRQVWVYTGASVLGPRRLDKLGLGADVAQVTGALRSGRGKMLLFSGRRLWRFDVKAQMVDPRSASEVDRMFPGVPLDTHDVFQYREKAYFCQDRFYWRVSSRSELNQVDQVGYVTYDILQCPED

SMILES	inhibition (Procathepsin L [1]) [%]	inhibition (Procathepsin L [2])	IC50 (Procathepsin L [3]) [µM]	inhibition (Cathepsin B [6]) [%]	IC50 (Cathepsin B [7]) [µM]	Activity (MDA-MB-231)	other results
NC(=S)N/N=C(\c1cccc(O)c1)c1cc(Br)cc(Br)c1	94	Active	0.202	> 50	> 10	Active	Ki (Procathepsin L [4]): 0.0084 µM; TDI (Procathepsin L [5]): Active; K (Procathepsin L [8]): 1.5 ×10³ /M/s; K (Procathepsin L [9]): 1 ×10⁻³ /s; K (Procathepsin L [10]): 2 ×10³ /M/s
NC(=S)N/N=C(\c1cc(O)cc(O)c1)c1cccc(Br)c1	23		≥ 10	> 50	> 10		
NC(=S)NN=C(c1cc(O)cc(Br)c1)c1cc(O)cc(Br)c1	40		> 10	> 50	> 10		
NC(=S)N/N=C(/c1cccc(Br)c1)c1cccc(OP(=O)([O-])[O-])c1.[Na+].[Na+]	18	< 50%	> 10	> 50		Active	solubility [11]: Soluble; solubility [12]: > 400 mg/mL; Drug degradation [13]: 5.6%; Stability [14]: Stable; Retention time [15]: 1.6 min; GI50 at 48 h [16]: 20.2 µM; Drug metabolism [17]: Metabolite detected; Drug metabolism [18]: Metabolite not detected
NC(=S)N/N=C(\c1cccc(O)c1)c1cccc(Br)c1	88 to 91	Active				Active	Ki (Procathepsin L [4]): 0.0037 µM; Retention time [15]: 5.4 min; inhibition (Caspase-3 (Homo sapiens)): 4.5%; inhibition [19]: 3%; inhibition [20]: 15%; solubility [21]: < 0.67 mg/mL

Now from value to compound, other results behind:

inhibition (Procathepsin L [1]) [%]	inhibition (Procathepsin L [2])	IC50 (Procathepsin L [3]) [µM]	inhibition (Cathepsin B [6]) [%]	IC50 (Cathepsin B [7]) [µM]	SMILES	Activity (MDA-MB-231)	other results
52		≥ 10	> 50	> 10	COc1cc(OC)cc(/C(=N\NC(N)=S)c2cc(Br)cc(Br)c2)c1		
46		> 10	> 50	> 10	COc1cc(OC)cc(/C(=N\NC(N)=S)c2cccc(Br)c2)c1		
44		> 10	> 50	> 10	NC(=S)N/N=C(\c1cc(O)cc(O)c1)c1cc(Br)cc(Br)c1		
